Results as given in US20260071179A1, “PRODUCTION METHOD OF NERVE CELLS DAMAGED BY OXIDATIVE STRESS AND APPLICATIONS THEREOF” (FUJIFILM Corporation, priority 2023, published 2026).

Test system: iCell motor neurons
Test: Evaluation of necroptosis inhibitor for oxidative stress-induced neuronal damage (neurite length, IncuCyte S3 Neurotrack)
Assay type: cell-based, human
Conditions: iCell motor neurons in −AO culture medium (Stress(+)), 4.7×10^4 cells/cm^2, compound 0.01 to 20 μM, FIG. 14
Protocol: (§1) A solution obtained by diluting iMatrix-511 silk (Matrixome, 892021) 16.7 times with PBS was added to a 96-well plate (Corning, 356461) coated with PDL at 70 μL/well, and incubated at 37° C. for 3 hours to 72 hours.
(§2) As a culture medium containing an antioxidant, a culture medium (Stress(−)) in which DMSO was added to a +AO culture medium to a final concentration of 0.1% by volume (v/v) was used, as a culture medium not containing an antioxidant, a culture medium (Stress(+)) in which DMSO was added to a −AO culture medium to a final concentration of 0.1% by volume (v/v), and as the culture medium of the drug evaluation group, a culture medium in which a DMSO-dissolved compound was added to the −AO culture medium to a concentration of 0.1% by volume (v/v) (0.01 to 20 μM) was used.
Frozen cells (iCell motor neurons, FCDI, C1048) were thawed in a warm bath at 37° C. After melting, the cells were added to a culture medium and centrifuged at 600×g at room temperature for 5 minutes. After centrifugation, the supernatant was removed, the cells were suspended in 1 mL of the culture medium, and the number of cells was counted. Thereafter, the cells were diluted with a culture medium, seeded at 200 μL/well (4.7×10^4 cells/cm^2), and cultured under the conditions of 37° C. and 5% CO2. […]
(§3) The neurite length was quantified using the Neurotrack software (Sartorius, 9600-0010) of IncuCyte S3.

Structure (SMILES)	reduction in the sum of the neurite lengths
CN1C(=O)C(Cc2c[nH]c3ccccc23)NC1=S (stereo not shown) [Necrostatin-1]	suppressed in a concentration-dependent manner

Test system: nerve cells (considered to be cortical excitatory neurons) produced by forcibly expressing the Ngn2 genes from the iPS cells
Test: Evaluation of compound for oxidative stress-induced neuronal damage (neurite length, IncuCyte S3 Neurotrack)
Assay type: cell-based, human
Conditions: same method as in Test Example 7, −AO culture medium (Stress(+)), FIG. 19
Protocol: as §1
As a culture medium containing an antioxidant, a culture medium (Stress(−)) in which DMSO was added to a +AO culture medium to a final concentration of 0.1% by volume (v/v) was used, as a culture medium not containing an antioxidant, a culture medium (Stress(+)) in which DMSO was added to a −AO culture medium to a final concentration of 0.1% by volume (v/v), and as the culture medium of the drug evaluation group, a culture medium in which a DMSO-dissolved compound was added to the −AO culture medium to a concentration of 0.1% by volume (v/v) (0.004 to 20 μM) was used.
The nerve cells (considered to be cortical excitatory neurons) produced by forcibly expressing the Ngn2 genes from the iPS cells was thawed in a warm bath at 37° C. […] After centrifugation, the supernatant was removed, the cells were suspended in 1 mL of the culture medium, and the number of cells was counted. […]
as §3
The effect of edaravone, which was used as a therapeutic drug for ALS, on oxidative stress-induced neuronal damage was evaluated by the same method as in Test Example 7. […]

Structure (SMILES)	reduction in the sum of the neurite lengths
CC1=NN(c2ccccc2)C(=O)C1 [edaravone]	suppressed in a concentration-dependent manner

Test system: iCell motor neurons
Test: Compound screening using oxidative stress-induced neuronal damage evaluation system (AUC of neurite length over 14 days)
Assay type: cell-based, human
Conditions: iCell motor neurons in −AO culture medium (Stress(+)), 4.7×10^4 cells/cm^2, StemSelect Library compounds, FIG. 18
Protocol: as §1
as §2, with “As the compound library, StemSelect Library compounds (Merck, 569774) were used. As” for “As”, “(v/v)” for “(v/v) (0.01 to 20 μM)”
Frozen cells (iCell motor neurons, FCDI, C1048) were thawed in a warm bath at 37° C. After melting, the cells were added to a culture medium and centrifuged at 600×g at room temperature for 5 minutes. After centrifugation, the supernatant was removed, the cells were suspended in 1 mL of the culture medium, and the number of cells was counted. Thereafter, the cells were diluted with a culture medium, seeded at 200 μL/well (4.7×10^4 cells/cm^2), and cultured under the conditions of 37° C. and 5% CO2. After culturing, images were acquired by imaging with IncuCyte S3 (Sartorius, Incucyte S3) every 6 hours.
The neurite length was quantified using the Neurotrack software (Sartorius, 9600-0010) of IncuCyte S3. The area under the curve (AUC) of the curve of the neurite length over time for 14 days was calculated, and the effects of the drug were compared. […] The AUC of the nerve cells (Stress(+) group) (▴) cultured in the culture medium not containing an antioxidant was reduced as compared with the nerve cells (Stress(−) group) (▪) cultured in the culture medium containing an antioxidant.

Structure (SMILES)	reduction in AUC of the curve of the neurite length over time for 14 days
CCCC(=O)OCc1ccc(OC(=O)/C=C(C)/C=C/C=C(C)/C=C/C2=C(C)CCCC2(C)C)cc1 [ATRA-BA Hybrid]	strongly suppressed
Clc1ccccc1CNCC1CCC(CNCc2ccccc2Cl)CC1 (stereo not shown) [AY 9944]	strongly suppressed
O=C(O)c1ccc2cc(-c3ccc(O)c(C45CC6CC(CC(C6)C4)C5)c3)ccc2c1 [CD437/AHPN]	strongly suppressed
N=C(N)SCCc1ccc(OCc2ccc([N+](=O)[O-])cc2)cc1 [KB-R7943]	strongly suppressed
C=CC(C)(C)c1cc(/C=C/C(=O)c2ccc(O)cc2)c(OC)cc1O [Licochalcone-A]	strongly suppressed
CC[C@H](C)C(=O)O[C@H]1CCC=C2C=C[C@H](C)[C@H](CC[C@@H]3C[C@@H](O)CC(=O)O3)[C@H]21 [Mevastatin]	strongly suppressed
CC#C[C@]1(O)CC[C@H]2[C@@H]3CCC4=CC(=O)CCC4=C3[C@@H](c3ccc(N(C)C)cc3)C[C@@]21C [Mifepristone]	strongly suppressed
c1ccc2c(Oc3nc(Nc4ccc(N5CCOCC5)cc4)c4ncn(C5CCCCC5)c4n3)cccc2c1 [Purmorphamine]	strongly suppressed
c1nc2nc(Nc3ccc(N4CCOCC4)cc3)nc(NC3CCCCC3)c2[nH]1 [Reversine]	strongly suppressed
O=C(Nc1cccc(NC(=O)c2cccc(O)c2O)c1)c1cccc(O)c1O [Telomerase Inhibitor IX]	strongly suppressed
C[C@H](NC(=O)Cc1cc(F)cc(F)c1)C(=O)N[C@H]1N=C(c2ccccc2)c2ccccc2N(C)C1=O [γ-Secretase Inhibitor XXI]	strongly suppressed
